# From patent publication US12180193B2, “Accelerating fibrosarcoma protein degrading compounds and associated methods of use” (Arvinas Operations, Inc., priority 2020, dated 2024)
# Tests used:
# BRAF G466V = target: T1, BRAF G466V (Homo sapiens, UniProt P15056, G466V); assay: Cellular assay of target protein degradation, T-Rex 293 cells stably transfected with HA-BRAF G466V (HA immunofluorescence, high content imaging); assay type: cell-based; conditions: T-Rex 293 HA-BRAF G466V; for DC50: half maximal degradation, read-out: BRaf G466V DC50; for Dmax: maximum degradation observed
# T1 construct: expressed in transfected cells
# T1 sequence (P15056 whole entry G466V): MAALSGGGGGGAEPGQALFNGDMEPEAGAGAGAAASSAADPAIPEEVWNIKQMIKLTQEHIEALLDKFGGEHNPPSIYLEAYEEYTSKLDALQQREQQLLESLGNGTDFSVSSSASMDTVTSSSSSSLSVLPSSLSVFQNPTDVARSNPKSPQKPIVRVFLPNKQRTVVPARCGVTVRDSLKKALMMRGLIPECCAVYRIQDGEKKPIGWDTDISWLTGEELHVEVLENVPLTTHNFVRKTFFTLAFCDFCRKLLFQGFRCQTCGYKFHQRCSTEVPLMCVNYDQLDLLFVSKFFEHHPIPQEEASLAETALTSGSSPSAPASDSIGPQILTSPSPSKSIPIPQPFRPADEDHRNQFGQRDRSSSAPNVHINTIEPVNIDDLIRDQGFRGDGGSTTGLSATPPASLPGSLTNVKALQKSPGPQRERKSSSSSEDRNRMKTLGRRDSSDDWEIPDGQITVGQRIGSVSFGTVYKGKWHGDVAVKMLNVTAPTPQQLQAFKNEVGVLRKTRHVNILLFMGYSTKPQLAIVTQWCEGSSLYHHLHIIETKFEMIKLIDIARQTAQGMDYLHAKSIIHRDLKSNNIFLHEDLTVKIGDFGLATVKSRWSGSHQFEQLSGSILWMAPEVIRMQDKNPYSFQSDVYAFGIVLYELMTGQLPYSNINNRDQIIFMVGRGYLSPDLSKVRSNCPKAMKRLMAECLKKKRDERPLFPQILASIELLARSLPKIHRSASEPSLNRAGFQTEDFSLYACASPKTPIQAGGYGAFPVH
# In short: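 Read-out is HA immunofluorescence by high content imaging, with Hoechst and phalloidin co-staining, giving DC50 and Dmax as a percentage of control. Compound exposure lasts 24 hours at 37° C over 30 nM to 3 pM in 0.1% DMSO, with doxycycline-induced HA-BRAF G466V.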
# BRAF V600E = target: T2, BRAF V600E (Homo sapiens, UniProt P15056, V600E); assay: Cellular assay of target protein degradation, T-Rex 293 cells stably transfected with HA-BRAF_V600E (HA immunofluorescence, high content imaging); assay type: cell-based; conditions: T-Rex 293 HA-BRAF V600E; for DC50: half maximal degradation, read-out: BRaf V600E DC50; for Dmax: maximum degradation observed
# T2 construct: expressed in transfected cells
# T2 sequence (P15056 whole entry V600E): as the sequence (P15056 whole entry G466V) above, with V466G, V600E counted along it
# In short: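 Cells are plated with 1 ng/mL doxycycline and grown 24 h. Compound is then added (final 1 μM–0.1 nM, 0.1% DMSO) for another 24 h at 37 °C, followed by fixing, HA immunostaining and imaging to obtain DC50 and Dmax.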
SMILES,DC50 (BRAF G466V),DC50 (BRAF V600E),Dmax (BRAF V600E),Dmax (BRAF G466V)
"O=C1CCC(N2Cc3cc(N4CCC(CCC5CCN(c6ccc(-c7cnc8[nH]cc(C(=O)c9c(F)ccc(NS(=O)(=O)N%10CC[C@@H](F)C%10)c9F)c8c7)cc6)CC5)CC4)ccc3C2=O)C(=O)N1 (stereo partly drawn) [Compound 308, (3R)-N-[3-(5-{4-[4-(2-{1-[2-(2,6-dioxopiperidin-3-yl)-1-oxo-2,3-dihydro-1H-isoindol-5-yl]piperidin-4-yl}ethyl)piperidin-1-yl]phenyl}-1H-pyrrolo[2,3-b]pyridine-3-carbonyl)-2,4-difluorophenyl]-3-fluoropyrrolidine-1-sulfonamide]",> 30 nM,50 to 500 nM,< 35%,–
O=C1CCC(N2Cc3cc(N4CCC(CN5CC[C@@H]6CN(c7ccc(-c8cnc9[nH]cc(C(=O)c%10c(F)ccc(NS(=O)(=O)N%11CC[C@@H](F)C%11)c%10F)c9c8)cc7)C[C@@H]6C5)CC4)ccc3C2=O)C(=O)N1 (stereo partly drawn) [Compound 309],1 to 10 nM,5 to 50 nM,35 to 70%,> 70%
"O=C1CCC(N2Cc3cc(CCCN4CC5(C4)CN(c4ccc(-c6cnc7[nH]cc(C(=O)c8c(F)ccc(NS(=O)(=O)N9CC[C@@H](F)C9)c8F)c7c6)cc4F)C5)ccc3C2=O)C(=O)N1 (stereo partly drawn) [Compound 310, (3R)-N-(3-{5-[4-(6-{3-[2-(2,6-dioxopiperidin-3-yl)-1-oxo-2,3-dihydro-1H-isoindol-5-yl]propyl}-2,6-diazaspiro[3.3]heptan-2-yl)-3-fluorophenyl]-1H-pyrrolo[2,3-b]pyridine-3-carbonyl}-2,4-difluorophenyl)-3-fluoropyrrolidine-1-sulfonamide]",1 to 10 nM,5 to 50 nM,35 to 70%,> 70%
"O=C1CCC(N2Cc3cc(N4CCC(CN5CC[C@@H]6[C@H](C5)CN6c5ccc(-c6cnc7[nH]cc(C(=O)c8c(F)ccc(NS(=O)(=O)N9CC[C@@H](F)C9)c8F)c7c6)cc5)CC4)ccc3C2=O)C(=O)N1 (stereo partly drawn) [Compound 311, (3R)-N-[3-(5-{4-[(1R,6R)-3-({1-[2-(2,6-dioxopiperidin-3-yl)-1-oxo-2,3-dihydro-1H-isoindol-5-yl]piperidin-4-yl}methyl)-3,7-diazabicyclo[4.2.0]octan-7-yl]phenyl}-1H-pyrrolo[2,3-b]pyridine-3-carbonyl)-2,4-difluorophenyl]-3-fluoropyrrolidine-1-sulfonamide]",1 to 10 nM,5 to 50 nM,35 to 70%,> 70%
"O=C1CCC(N2Cc3cc(C4CCN(C[C@@H]5CCN(c6ccc(-c7cnc8[nH]cc(C(=O)c9c(F)ccc(NS(=O)(=O)N%10CC[C@@H](F)C%10)c9F)c8c7)cc6)C(=O)C5)CC4)ccc3C2=O)C(=O)N1 (stereo partly drawn) [Compound 312, (3R)-N-[3-(5-{4-[(4R)-4-({4-[2-(2,6-dioxopiperidin-3-yl)-1-oxo-2,3-dihydro-1H-isoindol-5-yl]piperidin-1-yl}methyl)-2-oxopiperidin-1-yl]phenyl}-1H-pyrrolo[2,3-b]pyridine-3-carbonyl)-2,4-difluorophenyl]-3-fluoropyrrolidine-1-sulfonamide]",1 to 10 nM,50 to 500 nM,> 70%,> 70%
"O=C1CCC(N2Cc3cc(N4CCC(CN5CCN(c6ccc(-c7cnc8[nH]cc(C(=O)c9c(F)ccc(NS(=O)(=O)N%10CC[C@@H](F)C%10)c9F)c8c7)cc6)CC(F)(F)C5)CC4)ccc3C2=O)C(=O)N1 (stereo partly drawn) [Compound 315, (3R)-N-{3-(5-{4-[4-({1-[2-(2,6-dioxopiperidin-3-yl)-1-oxo-2,3-dihydro-1H-isoindol-5-yl]piperidin-4-yl}methyl)-6,6-difluoro-1,4-diazepan-1-yl]phenyl}-1H-pyrrolo[2,3-b]pyridine-3-carbonyl)-2,4-difluorophenyl]-3-fluoropyrrolidine-1-sulfonamide]",> 30 nM,> 500 nM,–,–
